ChEMBL document CHEMBL1938312, “Design and combinatorial synthesis of a novel kinase-focused library using click chemistry-based fragment assembly” (Bioorg Med Chem Lett, 2012)
The source made the active and inactive calls. No cut-off for these calls is given here.

Assays:
[1] = target: Tyrosine-protein kinase CSK (Homo sapiens) (UniProt P41240); experiment: Inhibition of CSK at 10 uM by colorimetric analysis
[2] = target: Tyrosine-protein kinase Lck (Homo sapiens) (UniProt P06239); experiment: Inhibition of LCK at 10 uM by colorimetric analysis
[3] = target: MAP kinase-activated protein kinase 2 (Homo sapiens) (UniProt P49137); experiment: Inhibition of MAPKAPK2 at 10 uM by colorimetric analysis
[4] = target: Glycogen synthase kinase-3 beta (Homo sapiens, UniProt P49841); experiment: Inhibition of GSK3-beta by colorimetric analysis
[5] = target: cAMP-dependent protein kinase catalytic subunit alpha (Homo sapiens) (UniProt P17612); experiment: Inhibition of PKACa at 10 uM by colorimetric analysis
[6] = target: T1, Interleukin-1 receptor-associated kinase 4 (Homo sapiens) (UniProt Q9NWZ3); experiment: Inhibition of IRAK4 at 10 uM by colorimetric analysis
T1 sequence (whole entry): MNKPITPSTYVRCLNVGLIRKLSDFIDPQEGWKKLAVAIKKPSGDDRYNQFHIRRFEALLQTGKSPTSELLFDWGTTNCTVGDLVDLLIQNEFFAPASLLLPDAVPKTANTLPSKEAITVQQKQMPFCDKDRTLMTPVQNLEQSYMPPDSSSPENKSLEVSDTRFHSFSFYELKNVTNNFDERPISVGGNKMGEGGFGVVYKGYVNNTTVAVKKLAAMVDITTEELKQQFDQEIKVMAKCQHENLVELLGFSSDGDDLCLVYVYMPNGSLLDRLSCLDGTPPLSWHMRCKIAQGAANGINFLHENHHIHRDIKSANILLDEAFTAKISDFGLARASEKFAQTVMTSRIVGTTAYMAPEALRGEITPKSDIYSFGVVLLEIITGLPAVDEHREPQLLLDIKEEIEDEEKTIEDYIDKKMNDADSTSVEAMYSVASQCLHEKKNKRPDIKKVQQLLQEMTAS

[7] = target: Mitogen-activated protein kinase 14 (Homo sapiens) (UniProt Q16539); experiment: Inhibition of p38alpha at 10 uM by colorimetric analysis
Sequence of Mitogen-activated protein kinase 14 (Homo sapiens) (Q16539 whole entry): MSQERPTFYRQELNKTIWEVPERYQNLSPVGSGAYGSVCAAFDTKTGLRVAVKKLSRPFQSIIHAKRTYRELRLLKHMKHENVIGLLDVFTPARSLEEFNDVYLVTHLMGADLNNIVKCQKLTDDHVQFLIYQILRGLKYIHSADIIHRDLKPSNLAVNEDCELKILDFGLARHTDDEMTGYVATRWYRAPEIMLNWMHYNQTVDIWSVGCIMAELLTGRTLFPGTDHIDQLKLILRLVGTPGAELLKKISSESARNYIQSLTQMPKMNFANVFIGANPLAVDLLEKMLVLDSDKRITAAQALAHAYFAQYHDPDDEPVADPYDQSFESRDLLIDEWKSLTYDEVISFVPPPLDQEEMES

Sequence of MAP kinase-activated protein kinase 2 (Homo sapiens) (P49137 whole entry, looked up): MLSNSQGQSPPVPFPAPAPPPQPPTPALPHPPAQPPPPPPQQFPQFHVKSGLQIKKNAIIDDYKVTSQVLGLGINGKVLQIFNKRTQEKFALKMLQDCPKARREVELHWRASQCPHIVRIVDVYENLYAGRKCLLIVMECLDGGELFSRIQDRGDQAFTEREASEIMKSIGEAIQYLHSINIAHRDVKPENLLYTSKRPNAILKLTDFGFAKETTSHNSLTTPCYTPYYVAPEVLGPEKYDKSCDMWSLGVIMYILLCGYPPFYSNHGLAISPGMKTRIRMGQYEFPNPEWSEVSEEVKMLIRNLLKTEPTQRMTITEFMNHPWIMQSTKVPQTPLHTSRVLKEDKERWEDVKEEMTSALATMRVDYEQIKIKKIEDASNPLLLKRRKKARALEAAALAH
Sequence of Tyrosine-protein kinase CSK (Homo sapiens) (P41240 2-450 limits assumed): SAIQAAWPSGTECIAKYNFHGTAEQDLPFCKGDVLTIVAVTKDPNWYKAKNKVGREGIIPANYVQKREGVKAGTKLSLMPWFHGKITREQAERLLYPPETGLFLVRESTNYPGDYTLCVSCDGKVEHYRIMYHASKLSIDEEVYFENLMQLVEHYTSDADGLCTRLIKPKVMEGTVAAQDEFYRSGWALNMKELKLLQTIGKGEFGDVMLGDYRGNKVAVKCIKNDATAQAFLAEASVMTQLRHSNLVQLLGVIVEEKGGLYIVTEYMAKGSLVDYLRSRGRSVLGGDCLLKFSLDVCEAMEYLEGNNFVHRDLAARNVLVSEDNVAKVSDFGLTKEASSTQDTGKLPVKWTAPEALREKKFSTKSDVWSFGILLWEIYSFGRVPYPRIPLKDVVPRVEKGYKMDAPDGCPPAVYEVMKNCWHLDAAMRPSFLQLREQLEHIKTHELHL
Sequence of Tyrosine-protein kinase Lck (Homo sapiens) (P06239 2-509 limits assumed): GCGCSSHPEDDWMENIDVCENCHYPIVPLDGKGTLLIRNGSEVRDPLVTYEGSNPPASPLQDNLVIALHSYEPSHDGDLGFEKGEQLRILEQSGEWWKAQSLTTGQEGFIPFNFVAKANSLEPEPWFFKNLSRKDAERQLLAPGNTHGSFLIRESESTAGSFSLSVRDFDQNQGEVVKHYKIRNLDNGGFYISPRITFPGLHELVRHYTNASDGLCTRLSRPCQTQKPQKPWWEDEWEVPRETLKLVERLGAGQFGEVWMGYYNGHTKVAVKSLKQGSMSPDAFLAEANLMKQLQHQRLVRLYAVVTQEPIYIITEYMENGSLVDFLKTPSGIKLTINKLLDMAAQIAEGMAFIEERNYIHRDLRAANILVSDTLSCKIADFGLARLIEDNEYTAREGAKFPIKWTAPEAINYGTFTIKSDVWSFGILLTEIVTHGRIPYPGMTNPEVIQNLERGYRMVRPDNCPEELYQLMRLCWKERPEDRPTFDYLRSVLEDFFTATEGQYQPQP
Sequence of Glycogen synthase kinase-3 beta (P49841 whole entry): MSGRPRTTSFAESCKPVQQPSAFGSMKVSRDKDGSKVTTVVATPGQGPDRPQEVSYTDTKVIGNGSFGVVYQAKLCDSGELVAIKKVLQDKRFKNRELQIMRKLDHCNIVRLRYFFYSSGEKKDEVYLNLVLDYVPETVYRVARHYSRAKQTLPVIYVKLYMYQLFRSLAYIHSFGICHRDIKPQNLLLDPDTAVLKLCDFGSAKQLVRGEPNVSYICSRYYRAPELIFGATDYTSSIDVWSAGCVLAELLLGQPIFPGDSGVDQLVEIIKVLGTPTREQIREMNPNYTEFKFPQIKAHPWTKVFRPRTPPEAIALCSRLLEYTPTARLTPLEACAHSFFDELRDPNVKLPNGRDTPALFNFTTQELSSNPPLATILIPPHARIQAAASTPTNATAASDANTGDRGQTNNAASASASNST

inhibition [1] | inhibition [2] | inhibition [3] | IC50 [4] | inhibition [5] | inhibition [6] | inhibition [7] | SMILES
inactive | inactive | Active | 1.8 µM | Active | Active | Active | Clc1cccc(-n2cc(-c3ccncc3)nn2)c1
inactive | inactive | Active | – | Active | Active | Active | Clc1cccc(-n2nncc2-c2ccncc2)c1
inactive | inactive | Active | 1.1 µM | Active | Active | Active | Clc1ccc(-n2cc(-c3ccncc3)nn2)cc1
inactive | inactive | Active | – | Active | Active | Active | Clc1ccc(-n2nncc2-c2ccncc2)cc1
